Results as given in US7465817B2, “Inositolized phospholipids” (Charite-Universitats Medizin Berlin, priority 2002, dated 2008).
pIC50: −log10 of the molar value. Entries after “also recorded” stand apart in the source; their conditions may differ. Read-outs that look alike come from different tables or passages of the source.

How the values were obtained:
[1] = tested on: HaCaT cells; test: cell proliferation ELISA, based on the incorporation of BrdU (Roche); parameters: species or system human; conditions: for pIC50: serum-free, text says μmolar range; for antiproliferative effect (in words): non cytotoxic concentrations
Method: (§1) The impact of glycosidation in the glycosidated phospholipid analogs was determined in serum-free cell cultures of human keratinocytes (HaCaT cells) and a squamous carcinoma cell line (SCC-25).
Ino-PAF as obtained in Example 1, Glc-PC and Glc-PAF (synthesis according to Mickeleit, M. et al., Angew. Chem. Int. Ed. Engl. 34:2667-2669 (1995) and 37:351-353 (1998)), and HePC (Hexadecylphosphocholine; commercially available as Miltefosin) were tested in the cell proliferation ELISA, BrdU (col.), Roche in an amount of from 0.6 to 5 μM. Prior to the assay the cells were kept for 2 h in serum-free keratinocyte medium. Assays were performed using 10.000 cells per test, at least quadruple testing.

[2] = tested on: HaCaT cells; test: Viability determined by the LDH assay; assay type: cell-based; conditions: human
[3] = tested on: SCC-25 cells; test: antiproliferative effect in squamous carcinoma cell line; assay type: cell-based; conditions: SCC-25 tumor cells
Method: as §1
In SCC-25 cells the antiproliferative effects of the glycosidated phospholipid analogs is much stronger.

[4] = tested on: HaCaT cells; test: cell matrix adhesion to ECM proteins (collagen IV, fibronectin, laminin), crystal violet; assay type: cell-based, human; conditions: for cell adhesion to extracellular matrix components fibronectin, laminin and collagen IV: treatment for 2 h; for cell matrix adhesion after incubation (summary of advantages): HePC with delayed onset of action
Method: In order to study the effect of Glc-PAF, Ino-PAF and Glc-PC (as specified in Example 2) on cell matrix adhesion HaCaT cells were rested 15 min at 4° C. and allowed to adhere to different ECM proteins (collagen IV, fibronectin and laminin) for 90 min at 37° C. The proteins of the extracellular matrix (ECM) were loaded onto the plastic surface by overnight treatment at 4° C. After fixing and staining in crystal violet, coloring was measured at 570 nm. Per test were used 50,000 cells, and quadruple testing was performed.

[5] = low but antiproliferative concentrations; cited from earlier work
[6] = cited from earlier work
[7] = tested on: HaCaT cells; conditions: literature, Schoen et al. 1996; cited from earlier work
[8] = tested on: β1-Integrin; test: β1 integrin surface expression and clustering, immunofluorescence; assay type: cell-based, human; conditions: HaCaT cells
Method: HaCaT cells were treated with Ino-PAF (obtained as described in Example 1) for 48 h. For the immunofluorescence measurement, cells were treated with 5 μM Ino-PAF. The antibody utilized for detection was directed against the β1-Integrin, which is a surface receptor conferring cell-matrix-adhesion. Immunofluorescence analysis was performed on a collagen IV matrix. 5×10^4 cells/well were left to adhere for 90 min and stained with K20-FITC (anti-β1) or Phalloidin-TRITC respectively.

[9] = tested on: HaCaT cells; test: cell proliferation ELISA, based on the incorporation of BrdU (Roche); conditions: Homo sapiens, Fischer et al. unpublished data, read-out: antiproliferative effect IC50
[10] = tested on: protein kinase C (PKC); conditions: cited from earlier work

Compound | pIC50 ([1]; Homo sapiens) | antiproliferative effect (in words) [1] | Viability (LD50) [2] | antiproliferative effect [3] | cell adhesion to extracellular matrix components fibronectin, laminin and collagen IV [4] | apoptosis [5] | water solubility [6] | pIC50 [1] | cell matrix adhesion after incubation (summary of advantages) [4] | cell matrix adhesion [7] | toxic effect LD50 [2] [µM] | surface expression of integrins [8] | integrin clustering ([8]; 5 μM, 48 h) | pIC50 [9] | increase of PKC activity ([10]; HaCaT cells, non-toxic concentrations) | inhibition of PKC activity in vitro ([10]; high, toxic concentrations)
CCCCCCCCCCCCCCCCCCOC[C@H](COP(=O)([O-])OCC[N+](C)(C)C)O[C@H]1O[C@H](CO)[C@@H](O)[C@H](O)[C@H]1O [Glc-PAF, 1-O-octadecyl-2-O-α-D-gluco-pyranosyl-sn-glycero-3-phosphocholine] | 5.30 | inhibited cell proliferation | 9 | sub-μmolar range | increases cell adhesion | cause apoptosis | water-soluble | – | – | – | – | – | – | – | – | –
CCCCCCCCCCCCCCCCOP(=O)([O-])OCC[N+](C)(C)C [HePC, hexadecyl-phosphocholine] | – | – | – | – | – | – | – | 5.35 | increased | reduce cell matrix adhesion | – | – | – | – | – | –
CCCCCCCCCCCCCCCCCCOC[C@H](COP(=O)([O-])OCC[N+](C)(C)C)OCCO[C@@H]1[C@@H](O)[C@H](O)[C@@H](O)[C@H](O)[C@@H]1O [Ino-PAF, inositol-C2-PAF] | 5.74 | strong antiproliferative effects; also recorded: stronger antiproliferative effects than the therapeutically used HePC | 15 | – | concentration-dependent increase; also recorded: increases cell adhesion | – | – | – | increased | – | > 10 | not affected | induces integrin clustering | 5.77 | – | –
glyceroglucophosphocholine [Glc-PC] | – | strong antiproliferative effects; also recorded: inhibited cell proliferation | 50 | – | – | – | water-soluble | 5.05 | – | – | – | – | – | – | up to 70% | do not inhibit PKC activity
